Experimental data reported in PubChem BioAssay (NCI).
Values joined by “and” are separate entries in the source; they are usually repeats but may differ in a detail not shown here. Identical values can stand only once.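 Protocol summary: plate cells (96-well), add compound at 5 concentrations, incubate 48 h, interpolate endpoints linearly. The concentration for 50% growth inhibition is given as GI50. Definition used: TGI = concentration required for complete inhibition of growth.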

Tests used:
Test in all cases: DTP human tumour cell line panel, 48 h
[1] = tested on: SF-268 CNS
[2] = tested on: UACC-62 melanoma
[3] = tested on: A549 NSCLC
[4] = tested on: SK-OV-3 ovarian
[5] = tested on: MDA-MB-435
[6] = tested on: EKVX NSCLC
[7] = tested on: NCI-H226 lung
[8] = tested on: HCT-15 colon
[9] = tested on: 786-0 renal
[10] = tested on: HOP-62 NSCLC

| Compound | GI50 [1] | TGI [1] | TGI [2] | GI50 [3] | TGI [3] | GI50 [4] | TGI [4] | TGI [5] | GI50 [6] | TGI [6] | GI50 [7] | TGI [7] | GI50 [8] | TGI [8] | TGI [9] | GI50 [10] | TGI [10] | GI50 [2] | GI50 [5] |
| --- | --- | --- | --- | --- | --- | --- | --- | --- | --- | --- | --- | --- | --- | --- | --- | --- | --- | --- | --- |
| CC1=C2C(=CO[C@H](C)[C@H]2C)C(=O)C(C(=O)O)=C1O | 22 µM | 59.2 µM and 38.2 µM | 85.6 µM and 40.4 µM | 31.1 µM | 142 µM and > 88.1 µM | 28 µM | 88 µM and 150 µM | 76.1 µM | 28.9 µM | 83.6 µM and 63.2 µM | 18.4 µM | 59.9 µM and 47.4 µM | 19.6 µM | 60.3 µM and 40.8 µM | 62.7 µM | 29 µM | 44.2 µM and 79.3 µM |  |  |
| CC(C)(C)OC(=O)NCC(CNC(=O)OC(C)(C)C)c1nc(C(N)=O)cs1 |  |  | > 100 µM |  | > 100 µM |  | > 100 µM | > 100 µM |  | > 100 µM |  | > 100 µM |  | > 100 µM | > 100 µM |  | > 100 µM |  |  |
| C=CCC1C(O[Si](C)(C)C(C)(C)C)C(CO[Si](C)(C)C(C)(C)C)OC1n1ccc(=O)[nH]c1=O (stereo not given) |  |  | 3.46 µM |  | 2.91 µM |  |  | 4.33 µM |  | 2.79 µM |  | 3.02 µM |  | 2.64 µM | 2.44 µM |  |  |  |  |
| O=c1c(-c2ccccc2)c(SCCO)n(-c2ccccc2)c(=S)n1-c1ccccc1 |  | > 100 µM | > 100 µM |  | > 100 µM |  | > 100 µM | > 100 µM |  | > 100 µM |  | > 100 µM |  | > 100 µM | > 100 µM |  | > 100 µM |  |  |
| CCN=C1C=CC(=C(c2ccc(N(CC)CC)cc2)c2ccc(N(CC)CC)cc2)c2ccccc21 |  |  | 1.11 µM |  |  | 0.0823 µM | 0.601 µM | 0.428 µM | 0.0378 µM | 1.18 µM | 0.064 µM | 1.61 µM | 0.299 µM | 1.21 µM |  | 0.159 µM | 0.846 µM | 0.0983 µM | 0.0733 µM |
| CCOP(=O)(OCC)/C(=C/c1cccs1)CC(C)=O |  | > 100 µM | > 100 µM |  | > 100 µM |  | > 100 µM | > 100 µM |  | > 100 µM |  | > 100 µM |  | > 100 µM | > 100 µM |  | > 100 µM |  |  |
| CCOC(=O)c1cc2c([N+](=O)[O-])c(N)ccc2s1 |  | > 100 µM | > 100 µM |  | > 100 µM |  | > 100 µM | > 100 µM |  | > 100 µM |  | > 100 µM |  | > 100 µM | > 100 µM |  | > 100 µM |  |  |
| COc1cnc2c(c1)C(=O)c1c-2n(CCCNCCO)c(=O)c2ccncc12 | 1.28 µM | 9.26 µM | 2.12 µM | 1.99 µM | 9.38 µM | 3.94 µM | 61.3 µM | 2.98 µM | 2.29 µM | 9.27 µM | 0.601 µM | 3.65 µM | 2.3 µM | 13.7 µM |  | 1.32 µM | 26.6 µM | 0.552 µM | 1.31 µM |
| O=C1CC(=O)n2cnc3cccc(c32)N1 |  | > 100 µM | > 100 µM |  | > 100 µM |  | > 100 µM | > 100 µM |  | > 100 µM |  | > 100 µM |  | > 100 µM | > 100 µM |  | > 100 µM |  |  |
